Laboratory results from ChEMBL document CHEMBL1150639, “Antiplasmodial compounds from Cochlospermum tinctorium” (J Nat Prod, 2002).

Test system: Plasmodium falciparum
Experiment: Antiplasmodial activity against chloroquine-sensitive Plasmodium falciparum 3D7
Assay type: functional, organism-based

| SMILES | IC50 [µM] |
| --- | --- |
| CCCCCCCCCCCC(=O)CCO | 68 |
| C=C(C)[C@@H]1CC[C@]2(C(=O)O)CC[C@]3(C)[C@H](CC[C@@H]4[C@@]5(C)C[C@@H](O)[C@H](O)C(C)(C)[C@@H]5CC[C@]43C)[C@@H]12 [ALPHITOLIC ACID] | 35 |
